# According to patent publication US10905691B2, “Use of triazolo(4,5-d)pyrimidine derivatives for prevention and treatment of bacterial infection” (Universite de Liege, priority 2016, dated 2021):
# Columns and labels:
# [1] = tested on: Glycopeptide intermediate-resistant (GISA) S. aureus Mu-50 (ATCC 700695); test: MBC and MDK99.9 determination (CFU counting); type: cell-based, Staphylococcus aureus; settings: for MBC: Staphylococcus aureus, ATCC700695, cut-off 99.9% reduction in CFU
# Procedure: (§1) Further experiments were conducted using different strains of S. aureus, as clinically relevant Gram-positive bacterial strains: ATCC 25904, ATCC 6538, methilcillin-resistant S. aureus (MRSA) ATCC BAA-1556, Glycopeptide intermediate-resistant (GISA) S. aureus Mu-50 (ATCC 700695) in order to determine the Minimal Inhibitory Concentration (MIC) which is the minimal concentration required to prevent bacterial growth; the Minimal Bactericidal Concentration (MBC) which determines the lowest concentration at which an antimicrobial agent kill a particular microorganism and a Minimum Duration for killing 99.9% bacteria (MDK99.9) which is a tolerance metric according to the EUCAST.
# (§2) MBC and MDK99.9 determination: A single colony selected from the different strains of S. aureus is resuspended and cultured in the appropriate medium (TSB, or BHI) overnight (O/N) in aerobic conditions (37° C. with 220 rpm shaking), next day a 1:100 inoculum in the appropriate medium was incubated in aerobic conditions for 2 h. The culture is then challenged with triafluocyl at MIC concentration or higher concentrations. Bacterial growth was measured after different time intervals by counting the colony-forming units after plating appropriate culture dilutions on BHI agar plates. […] And the real time needed is defined as the MDK99.9. MBC for Triafluocyl against S. aureus ATCC 25904, ATCC 6538, methilcillin-resistant S. aureus (MRSA) ATCC BAA-1556, Glycopeptide intermediate-resistant (GISA), and S. aureus Mu-50 (ATCC 700695) were 20 μg/ml for each of them. MDK99.9 for Triafluocyl against S. aureus ATCC 25904, ATCC 6538, methilcillin-resistant S. aureus (MRSA) ATCC BAA-1556, Glycopeptide intermediate-resistant (GISA), and S. aureus Mu-50 (ATCC 700695) were 10, 6, 2, and 14 hours, respectively.
# (§3) For MBC determination a 1:100 inoculum of an O/N culture (prepared like before) was incubated in aerobic conditions for 2 h in bacteria-specific medium. The culture was then challenged with Fluometacyl at the MIC concentration or higher. Bacterial growth was measured after different time intervals by counting the colony-forming units (CFU) after plating appropriate culture dilutions on bacteria-specific medium agar plates.
# S. aureus ATCC 25904 = test: MBC and MDK99.9 determination (CFU counting); type: cell-based, Staphylococcus aureus; settings: for MBC: Staphylococcus aureus, ATCC25904, cut-off 99.9% reduction in CFU
# Procedure: as §1, §2, §3
# [2] = tested on: methilcillin-resistant S. aureus (MRSA) ATCC BAA-1556; test: MBC and MDK99.9 determination (CFU counting); type: cell-based, Staphylococcus aureus; settings: for MBC: Staphylococcus aureus, cut-off 99.9% reduction in CFU
# Procedure: as §1, §2, §3
# [3] = tested on: Escherichia coli (ATCC 8739); test: MIC determination with or without C12(ω7)Kβ12 (OAK); type: cell-based; settings: for MIC: Escherichia coli, ATCC8739, in presence of 5 μg/ml OAK; for inhibition of Escherichia coli growth: taken alone at a concentration of 10 μg/ml
# Description: (§4) Determination of Minimal Inhibitory Concentration (MIC) and Minimal Bactericidal Concentration (MBC) of Triafluocyl (purchased from Cayman Chemical, Item No. 15425) in presence of C12(ω7)Kβ12 (purchased from biomers.net, Germany) against Escherichia coli (ATCC 8739). The C12(ω7)Kβ12 was synthesized by solid-phase method as described by I. Radzishevsky in Antimicrobial Agents and Chemotherapy, May 2007 (1753-1759) (https://aac.asm.org/content/51/5/1753).
# (§5) A single colony of Escherichia coli grown on a Luria-Bertani (LB) agar plate is resuspended and cultured in LB medium overnight (O/N) in aerobic conditions (37° C. with 220 rpm shaking in the New Brunswick Innova 4330 Shaker incubator). An aliquot of 100 μl such overnight Escherichia coli culture is diluted 1:50 in 5 ml Mueller-Hintom broth (MHB) and is incubated in aerobic conditions during 1 hour 30 minutes (OD=0.08-0.1) to reach the exponential phase of their growth curve. An inoculum of the exponentially growing Escherichia coli, corresponding to around 1×10^6 c.f.u./ml is then incubated in presence or absence of different concentrations of Triafluocyl in 2% DMSO with or without OAK for 24 hr in aerobic conditions (37° C. with 220 rpm shaking in the New Brunswick Innova 4330 Shaker incubator). Growth of Escherichia coli in each condition depicted in FIG. 13A is evaluated by reading the Optical Density of each culture at 600 nm (OD600) in a spectrophotometer (Victor-3, Perkin Elmer).
# as §4, with “Fluometacyl (prepared according to WO 99/05143)” for “Triafluocyl (purchased from Cayman Chemical, Item No. 15425)”
# as §5, with “An inoculum of the exponentially growing Escherichia coli, corresponding to around 1×10^6 c.f.u./ml is then incubated in presence or absence of different concentrations of Triafluocyl in 2% DMSO with or without OAK for 24 hr in aerobic conditions (37° C. with 220 rpm shaking in the New Brunswick Innova 4330 Shaker incubator).” left out, “14A” for “13A”
MIC [3] [µg/mL],Structure (SMILES),MBC ([1]; S. aureus MU50 GISA) [µM],MBC (S. aureus ATCC 25904),MBC [2],inhibition of Escherichia coli growth [3],MDK 99.9 Time (h) needed to kill 99.9% of the started inoculum ([1]; S. aureus Mu50 GISA) [h],MBC ([1]; S. aureus Mu50 GISA) [µg/mL],MDK 99.9 Time (h) needed to kill 99.9% of the started inoculum (S. aureus ATCC 25904) [h],MDK 99.9 Time (h) needed to kill 99.9% of the started inoculum [2] [h]
5,"CCCSc1nc(N[C@@H]2C[C@H]2c2ccc(F)c(F)c2)c2nnn([C@@H]3C[C@H](O)[C@@H](O)[C@H]3O)c2n1 [Fluometacyl, (1S,2R,3S,4R)-4-[7-[[(1R,2S)-2-(3,4-Difluorophenyl)cyclopropyl]amino]-5-(propylthio)-3H-1,2,3-triazolo[4,5-d]pyrimidin-3-yl]-1,2,3-cyclopentanetriol]",38,38 µM,38 µM,unable to inhibit E. coli growth,–,–,–,–
5,"CCCSc1nc(N[C@@H]2C[C@H]2c2ccc(F)c(F)c2)c2nnn([C@@H]3C[C@H](OCCO)[C@@H](O)[C@H]3O)c2n1 [Triafluocyl, (1S,2S,3R,5S)-3-[7-[(1R,2S)-2-(3,4-difluorophenyl)cyclopropylamino]-5-(propylthio)-3H-[1,2,3]-triazolo[4,5-d]pyrimidin-3-yl]-5-(2-hydroxyethoxy)-1,2-cyclopentanediol]",–,20 µg/mL,20 µg/mL,unable to inhibit Escherichia coli growth,14,20,10,2
